Values after ≈ are worked out from the molar mass of the structure shown.
Experiments:
Pseudomonas aeruginosa [1] = assay: Antibacterial activity against Pseudomonas aeruginosa P332 after 24 hrs by agar dilution method; conditions: P332, 24 h
Escherichia coli = assay: Antibacterial activity against beta-lactamase-negative Escherichia coli E346 after 24 hrs by agar dilution method; conditions: E346, 24 h
Pseudomonas aeruginosa [2] = assay: Antibacterial activity against Pseudomonas aeruginosa P352 after 24 hrs by agar dilution method; type: functional; conditions: P352, 24 h
Pseudomonas aeruginosa [3] = assay: Ratio of mutant prevention concentration to minimum Inhibitory concentration for Pseudomonas aeruginosa P319; type: functional
Acinetobacter baumannii [4] = assay: Ratio of mutant prevention concentration to minimum Inhibitory concentration for Acinetobacter baumannii A850; type: functional
Acinetobacter baumannii [5] = assay: Ratio of mutant prevention concentration to minimum Inhibitory concentration for Acinetobacter baumannii A898; type: functional
Acinetobacter baumannii [6] = assay: Ratio of mutant prevention concentration to minimum Inhibitory concentration for Acinetobacter baumannii A901; type: functional
Acinetobacter baumannii [7] = assay: Ratio of mutant prevention concentration to minimum Inhibitory concentration for Acinetobacter baumannii A891; type: functional

SMILES | MIC (Pseudomonas aeruginosa [1]) [µg/mL] | MIC (Escherichia coli) [µg/mL] | MIC (Pseudomonas aeruginosa [2]) [µg/mL] | Ratio (Pseudomonas aeruginosa [3]) | Ratio (Acinetobacter baumannii [4]) | Ratio (Acinetobacter baumannii [5]) | Ratio (Acinetobacter baumannii [6]) | Ratio (Acinetobacter baumannii [7])
C[C@@H](O)[C@H]1C(=O)N2C(C(=O)O)=C(SCCNC=N)C[C@H]12 [IMIPENEM ANHYDROUS] | 1 (≈ 3.34 µM) | 0.125 (≈ 0.418 µM) | 8 (≈ 26.7 µM) | – | – | – | – | –
C[C@@H](O)[C@H]1C(=O)N2C(C(=O)O)=C(S[C@@H]3CN[C@H](CNS(N)(=O)=O)C3)[C@H](C)[C@H]12 [DORIPENEM] | – | – | – | 4 | 2 | 2 | 2 | 4
